The results in this text go back to patent US20220089568A1 (Janssen Biotech, Inc., priority 2019, published 2022).

Assay [1] deals with T1, human DHODH (Homo sapiens, UniProt Q02127).
T1 construct: purchased Proteros PR-0044
Kind of assay: DHODH Enzymatic Assay. The assay is classed as biochemical. To be noted: purified human DHODH; DCIP absorbance, end-point mode. In outline:
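Purified human DHODH activity read as absorbance of DCIP, the terminal electron acceptor, in […] pH 7.5, 150 mM NaCl, 0.5 mM EDTA, 0.1% Triton X-100. Reaction started with a substrate mix of 20 mM DHO, 5 mM CoQ6 and 1 mM DCIP in assay buffer.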

The test system of assay [2] is MOLM-13 cells. The assay can be described thus: MOLM-13 Cellular Assay. Type of assay: cell-based. The note with it: Homo sapiens, 72 hours exposure, cell viability by CellTiter-Glo. As for the experimental part:
The day prior to assay set-up, cells were pelleted, resuspended in fresh media, counted, and cells were plated at 0.4×10^6 cell/mL in a T150 flask. […] Cells were exposed to different concentrations of test compounds at 37° C., 5% CO2 for 72 hours immediately after seeding.

Structures are written as SMILES.

T1 sequence (Q02127 whole entry): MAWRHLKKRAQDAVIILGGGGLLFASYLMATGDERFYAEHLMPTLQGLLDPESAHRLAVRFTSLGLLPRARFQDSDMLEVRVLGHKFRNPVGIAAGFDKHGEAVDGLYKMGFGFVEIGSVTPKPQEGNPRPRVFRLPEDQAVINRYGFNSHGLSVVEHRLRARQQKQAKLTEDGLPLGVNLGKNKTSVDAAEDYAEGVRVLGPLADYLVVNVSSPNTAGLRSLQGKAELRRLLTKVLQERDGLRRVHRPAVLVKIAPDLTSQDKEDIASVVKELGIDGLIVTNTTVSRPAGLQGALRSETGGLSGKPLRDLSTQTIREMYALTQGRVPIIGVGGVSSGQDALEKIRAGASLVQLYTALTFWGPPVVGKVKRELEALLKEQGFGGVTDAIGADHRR

For the compound `CCn1c(CO)nn(-c2nc(O[C@@H](C)C(F)(F)F)c(C(=O)Nc3c(C)noc3C)cc2F)c1=O` [Example 46, (S)-N-(3,5-Dimethylisoxazol-4-yl)-6-(4-ethyl-3-(hydroxymethyl)-5-oxo-4,5-dihydro-1H-1,2,4-triazol-1-yl)-5-fluoro-2-((1,1,1-trifluoropropan-2-yl)oxy)nicotinamide], the EC50 in assay [1] stood at 12.7 nM; in assay [2] it was 32.5 nM.
On the same counts, the results for `CCn1c(CO)nn(-c2nc(O[C@@H](C)C(F)(F)F)c(C(=O)Nc3c(Cl)ccnc3Cl)cc2F)c1=O` [Example 69, (S)-N-(2,4-Dichloropyridin-3-yl)-6-(4-ethyl-3-(hydroxymethyl)-5-oxo-4,5-dihydro-1H-1,2,4-triazol-1-yl)-5-fluoro-2-((1,1,1-trifluoropropan-2-yl)oxy)nicotinamide] are 0.611 nM and 0.673 nM.
Consider `CCn1c(CO)nn(-c2nc(O[C@@H](C)C(F)(F)F)c(C(=O)Nc3cc(OC)ncc3Cl)cc2F)c1=O` [Example 98, N-(5-Chloro-2-methoxy-4-pyridyl)-6-[4-ethyl-3-(hydroxymethyl)-5-oxo-1,2,4-triazol-1-yl]-5-fluoro-2-[(1S)-2,2,2-trifluoro-1-methyl-ethoxy]pyridine-3-carboxamide], for which the results for the EC50 in assay [1] and in assay [2] were 91.4 nM and 41.6 nM, respectively.
On the same counts, the results for `CCn1c(CO)nn(-c2nc(O[C@@H](C)C(F)(F)F)c(C(=O)Nc3c(C)nsc3C)cc2F)c1=O` [Example 35, (S)-N-(3,5-Dimethylisothiazol-4-yl)-6-(4-ethyl-3-(hydroxymethyl)-5-oxo-4,5-dihydro-1H-1,2,4-triazol-1-yl)-5-fluoro-2-((1,1,1-trifluoropropan-2-yl)oxy)nicotinamide] are 1.9 nM and 6.1 nM.
On the same counts, the results for `CCn1c(CO)nn(-c2nc(O[C@@H](C)C(F)(F)F)c(C(=O)Nc3c(C(F)F)n[nH]c3C)cc2F)c1=O` [Example 124, N-[3-(Difluoromethyl)-5-methyl-1H-pyrazol-4-yl]-6-[4-ethyl-3-(hydroxymethyl)-5-oxo-1,2,4-triazol-1-yl]-5-fluoro-2-[(1S)-2,2,2-trifluoro-1-methyl-ethoxy]pyridine-3-carboxamide] are 3.31 nM and 0.371 nM.
For the compound `CCn1c(CO)nn(-c2nc(O[C@@H](C)C(F)(F)F)c(C(=O)Nc3c(C)cncc3F)cc2F)c1=O` [Example 71, (S)-6-(4-Ethyl-3-(hydroxymethyl)-5-oxo-4,5-dihydro-1H-1,2,4-triazol-1-yl)-5-fluoro-N-(3-fluoro-5-methylpyridin-4-yl)-2-((1,1,1-trifluoropropan-2-yl)oxy)nicotinamide], the EC50 in assay [1] amounted to 5.6 nM; in assay [2], 21.1 nM.
In the same order, the values of `CCn1c(CO)nn(-c2nc(O[C@@H](C)C(F)(F)F)c(C(=O)Nc3snc(C)c3Br)cc2F)c1=O` [Example 31, (S)-N-(4-Bromo-3-methylisothiazol-5-yl)-6-(4-ethyl-3-(hydroxymethyl)-5-oxo-4,5-dihydro-1H-1,2,4-triazol-1-yl)-5-fluoro-2-((1,1,1-trifluoropropan-2-yl)oxy)nicotinamide] are 233 nM and more than 100 nM.
On the same counts, the results for `CCn1c(CO)nn(-c2nc(O[C@@H](C)C(F)(F)F)c(C(=O)Nc3nccnc3Cl)cc2F)c1=O` [Example 19, (S)-N-(3-Chloropyrazin-2-yl)-6-(4-ethyl-3-(hydroxymethyl)-5-oxo-4,5-dihydro-1H-1,2,4-triazol-1-yl)-5-fluoro-2-((1,1,1-trifluoropropan-2-yl)oxy)nicotinamide] are 40.4 nM and 51.3 nM.
For the compound `CCn1c(CO)nn(-c2nc(O[C@@H](C)C(F)(F)F)c(C(=O)Nc3nccc(OC)c3Cl)cc2F)c1=O` [Example 104, N-(3-Chloro-4-methoxy-2-pyridyl)-6-[4-ethyl-3-(hydroxymethyl)-5-oxo-1,2,4-triazol-1-yl]-5-fluoro-2-[(1S)-2,2,2-trifluoro-1-methyl-ethoxy]pyridine-3-carboxamide], the EC50 in assay [1] came to 6.62 nM; in assay [2], 7.59 nM.
As for `CCn1c(CO)nn(-c2nc(O[C@@H](C)C(F)(F)F)c(C(=O)Nc3c(Cl)c[nH]c(=O)c3Cl)cc2F)c1=O` [Example 22, (S)-N-(3,5-Dichloro-2-oxo-1H-pyridin-4-yl)-6-[4-ethyl-3-(hydroxymethyl)-5-oxo-1,2,4-triazol-1-yl]-5-fluoro-2-[(1S)-2,2,2-trifluoro-1-methyl-ethoxy]pyridine-3-carboxamide], the values for the EC50 in assay [1] and in assay [2] were 1.5 nM and 445 nM, respectively.
On the same counts, the results for `Cc1[nH]nc(Cl)c1NC(=O)c1cc(F)c(-n2nc(CF)n(CCCO)c2=O)nc1O[C@@H](C)C(F)(F)F` [Example 107, N-(3-Chloro-5-methyl-1H-pyrazol-4-yl)-5-fluoro-6-[3-(fluoromethyl)-4-(3-hydroxypropyl)-5-oxo-1,2,4-triazol-1-yl]-2-[(1S)-2,2,2-trifluoro-1-methyl-ethoxy]pyridine-3-carboxamide] are 18.1 nM and 1.5 nM.
Consider `CCn1c(CO)nn(-c2nc(O[C@@H](C)C(F)(F)F)c(C(=O)Nc3c(OC)cncc3OC)cc2F)c1=O` [Example 122, N-(3,5-Dimethoxy-4-pyridyl)-6-[4-ethyl-3-(hydroxymethyl)-5-oxo-1,2,4-triazol-1-yl]-5-fluoro-2-[(1S)-2,2,2-trifluoro-1-methyl-ethoxy]pyridine-3-carboxamide], for which the EC50 is more than 100 nM in assay [1] and 9.1 nM in assay [2].
In the case of `CCn1c(CO)nn(-c2nc(O[C@@H](C)C(F)(F)F)c(C(=O)Nc3c(Cl)n[nH]c3Cl)cc2F)c1=O` [Example 123, N-(3,5-Dichloro-1H-pyrazol-4-yl)-6-[4-ethyl-3-(hydroxymethyl)-5-oxo-1,2,4-triazol-1-yl]-5-fluoro-2-[(1S)-2,2,2-trifluoro-1-methyl-ethoxy]pyridine-3-carboxamide], the EC50 was 2.46 nM in assay [1] and 0.208 nM in assay [2].
For `CCn1c(CO)nn(-c2nc(O[C@@H](C)C(F)(F)F)c(C(=O)Nc3c(F)cccc3Cl)cc2F)c1=O` [Example 1, (S)-N-(2-Chloro-6-fluorophenyl)-6-(4-ethyl-3-(hydroxymethyl)-5-oxo-4,5-dihydro-1H-1,2,4-triazol-1-yl)-5-fluoro-2-((1,1,1-trifluoropropan-2-yl)oxy)nicotinamide], the EC50 in assay [1] is 0.237 nM; in assay [2], 0.156 nM.
Regarding `CCn1c(CO)nn(-c2nc(O[C@@H](C)C(F)(F)F)c(C(=O)Nc3nc(OC)ccc3F)cc2F)c1=O` [Example 56, (S)-6-(4-Ethyl-3-(hydroxymethyl)-5-oxo-4,5-dihydro-1H-1,2,4-triazol-1-yl)-5-fluoro-N-(3-fluoro-6-methoxypyridin-2-yl)-2-((1,1,1-trifluoropropan-2-yl)oxy)nicotinamide], the EC50 is 4.6 nM in assay [1] and 5.2 nM in assay [2].
On to `CCOc1ccnc(NC(=O)c2cc(F)c(-n3nc(CO)n(CC)c3=O)nc2O[C@@H](C)C(F)(F)F)c1Cl` [Example 105, N-(3-Chloro-4-ethoxy-2-pyridyl)-6-[4-ethyl-3-(hydroxymethyl)-5-oxo-1,2,4-triazol-1-yl]-5-fluoro-2-[(1S)-2,2,2-trifluoro-1-methyl-ethoxy]pyridine-3-carboxamide], for which the values for the EC50 in assay [1] and in assay [2] were 3.4 nM and 4.6 nM, respectively.
Turning to `CCn1c(CO)nn(-c2nc(O[C@@H](C)C(F)(F)F)c(C(=O)Nc3csnc3C)cc2F)c1=O` [Example 17, (S)-6-(4-Ethyl-3-(hydroxymethyl)-5-oxo-4,5-dihydro-1H-1,2,4-triazol-1-yl)-5-fluoro-N-(3-methylisothiazol-4-yl)-2-((1,1,1-trifluoropropan-2-yl)oxy)nicotinamide], the EC50 in assay [1] is 30.9 nM; in assay [2] it was 87.9 nM.
Turning to `CCn1c(CO)nn(-c2nc(O[C@@H](C)C(F)(F)F)c(C(=O)Nc3c(OC)ncnc3OC)cc2F)c1=O` [Example 94, N-(4,6-Dimethoxypyrimidin-5-yl)-6-[4-ethyl-3-(hydroxymethyl)-5-oxo-1,2,4-triazol-1-yl]-5-fluoro-2-[(1S)-2,2,2-trifluoro-1-methyl-ethoxy]pyridine-3-carboxamide], the EC50 is more than 33 nM in assay [1] and 48 nM in assay [2].
As for `CCn1c(CO)nn(-c2nc(O[C@@H](C)C(F)(F)F)c(C(=O)Nc3[nH]c(=O)ccc3Cl)cc2F)c1=O` [Example 23, (S)-N-(3-chloro-6-oxo-1,6-dihydropyridin-2-yl)-6-(4-ethyl-3-(hydroxymethyl)-5-oxo-4,5-dihydro-1H-1,2,4-triazol-1-yl)-5-fluoro-2-((1,1,1-trifluoropropan-2-yl)oxy)nicotinamide], the EC50 in assay [1] turned out to be 13.6 nM; in assay [2], 90 nM.
Take `CCn1c(CO)nn(-c2nc(O[C@@H](C)C(F)(F)F)c(C(=O)Nc3cc(OC)ncc3F)cc2F)c1=O` [Example 65, (S)-6-(4-Ethyl-3-(hydroxymethyl)-5-oxo-4,5-dihydro-1H-1,2,4-triazol-1-yl)-5-fluoro-N-(5-fluoro-2-methoxypyridin-4-yl)-2-((1,1,1-trifluoropropan-2-yl)oxy)nicotinamide]: the figures for the EC50 in assay [1] and in assay [2] were 202 nM and more than 100 nM, respectively.
Consider `CCn1c(CO)nn(-c2nc(O[C@@H](C)C(F)(F)F)c(C(=O)Nc3cnn(CCOC)c3)cc2F)c1=O` [Example 63, (S)-6-(4-Ethyl-3-(hydroxymethyl)-5-oxo-4,5-dihydro-1H-1,2,4-triazol-1-yl)-5-fluoro-N-(1-(2-methoxyethyl)-1H-pyrazol-4-yl)-2-((1,1,1-trifluoropropan-2-yl)oxy)nicotinamide], for which the EC50 is 865 nM in assay [1] and more than 100 nM in assay [2].
